Laboratory results published in ChEMBL document CHEMBL1201862, “PubChem BioAssay data set” (2004).
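Exposure lasted 48 hours, with cells grown in 96-well plates and compounds tested at five concentrations. GI50 marks 50% less growth.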 Activity calls are given as the source filed them. Cut-off read from the data, not from the text of the source: active = GI50 up to about 1.1 µM and inactive = higher.

Key:
Test in all cases: growth of human tumour cells (NCI), 48 h
ACHN = test system: ACHN
SF-295 = test system: SF-295
SR = test system: SR
PC-3 = test system: PC-3
M14 = test system: M14
HCT-15 = test system: HCT-15
SNB-19 = test system: SNB-19
UACC-62 = test system: UACC-62
MDA-MB-435 = test system: MDA-MB-435
T47D = test system: T47D
A549 = test system: A549
SNB-75 = test system: SNB-75
SK-MEL-28 = test system: SK-MEL-28
SW-620 = test system: SW-620
MOLT-4 = test system: MOLT-4
HCC 2998 = test system: HCC 2998
BT-549 = test system: BT-549
786-0 = test system: 786-0
U-251 = test system: U-251
SN12C = test system: SN12C
A498 = test system: A498
RPMI-8226 = test system: RPMI-8226
UO-31 = test system: UO-31
SK-MEL-2 = test system: SK-MEL-2
HOP-92 = test system: HOP-92
MCF7 = test system: MCF7
MDA-N = test system: MDA-N
TK-10 = test system: TK-10
CAKI-1 = test system: CAKI-1
OVCAR-4 = test system: OVCAR-4
HCT-116 = test system: HCT-116
OVCAR-8 = test system: OVCAR-8
SF-539 = test system: SF-539
DU-145 = test system: DU-145
OVCAR-3 = test system: OVCAR-3
MDA-MB-231 = test system: MDA-MB-231
RXF 393 = test system: RXF 393
NCI/ADR-RES = test system: NCI/ADR-RES
NCI-H522 = test system: NCI-H522
HOP-62 = test system: HOP-62
IGROV-1 = test system: IGROV-1
KM12 = test system: KM12
SK-OV-3 = test system: SK-OV-3
LOX IMVI = test system: LOX IMVI
COLO 205 = test system: COLO 205
NCI-H460 = test system: NCI-H460
K562 = test system: K562
UACC-257 = test system: UACC-257
Hs-578T = test system: Hs-578T
SF-268 = test system: SF-268
CCRF-CEM = test system: CCRF-CEM
OVCAR-5 = test system: OVCAR-5
HT-29 = test system: HT-29
NCI-H23 = test system: NCI-H23
SK-MEL-5 = test system: SK-MEL-5
EKVX = test system: EKVX
NCI-H226 = test system: NCI-H226
Malme-3M = test system: Malme-3M
HL-60 = test system: HL-60

`CC(=O)/C(=C\NC(N)=S)C(=O)Nc1ccccc1C` was tested, and the GI50 (ACHN) was > 100 µM (inactive), the GI50 (SF-295) was > 100 µM (inactive) and the GI50 (SR) was > 100 µM (inactive). The GI50 (PC-3) was > 100 µM (inactive), the GI50 (M14) was > 100 µM (inactive) and the GI50 (HCT-15) was over 100 µM. For the same compound, the GI50 (SNB-19) was > 100 µM (inactive), the GI50 (UACC-62) was > 100 µM (inactive) and the GI50 (MDA-MB-435) was > 100 µM (inactive). For the same compound, the GI50 (T47D) was > 100 µM (inactive), the GI50 (A549) was > 100 µM (inactive) and the GI50 (SNB-75) was > 100 µM (inactive). The GI50 (SK-MEL-28) was > 100 µM (inactive), the GI50 (SW-620) was > 100 µM (inactive) and the GI50 (MOLT-4) was > 100 µM (inactive). The GI50 (HCC 2998) was > 100 µM (inactive), the GI50 (BT-549) was > 100 µM (inactive) and the GI50 (786-0) was > 100 µM (inactive). The GI50 (U-251) was > 100 µM (inactive), the GI50 (SN12C) was > 100 µM (inactive) and the GI50 (A498) was > 100 µM (inactive). The GI50 (RPMI-8226) was > 100 µM (inactive), the GI50 (UO-31) was > 100 µM (inactive) and the GI50 (SK-MEL-2) was > 100 µM (inactive). For the same compound, the GI50 (HOP-92) was > 100 µM (inactive), the GI50 (MCF7) was > 100 µM (inactive) and the GI50 (MDA-N) was > 100 µM (inactive). The GI50 (TK-10) was > 100 µM (inactive), the GI50 (CAKI-1) was > 100 µM (inactive) and the GI50 (OVCAR-4) was > 100 µM (inactive). The GI50 (HCT-116) was > 100 µM (inactive), the GI50 (OVCAR-8) was > 100 µM (inactive) and the GI50 (SF-539) was > 100 µM (inactive). The GI50 (DU-145) was > 100 µM (inactive), the GI50 (OVCAR-3) was > 100 µM (inactive) and the GI50 (MDA-MB-231) was > 100 µM (inactive). For the same compound, the GI50 (RXF 393) was > 100 µM (inactive), the GI50 (NCI/ADR-RES) was > 100 µM (inactive) and the GI50 (NCI-H522) was > 100 µM (inactive). For the same compound, the GI50 (HOP-62) was > 100 µM (inactive), the GI50 (IGROV-1) was > 100 µM (inactive) and the GI50 (KM12) was > 100 µM (inactive). For the same compound, the GI50 (SK-OV-3) was > 100 µM (inactive), the GI50 (LOX IMVI) was > 100 µM (inactive) and the GI50 (COLO 205) was > 100 µM (inactive). The GI50 (NCI-H460) was > 100 µM (inactive), the GI50 (K562) was > 100 µM (inactive) and the GI50 (UACC-257) was > 100 µM (inactive). For the same compound, the GI50 (Hs-578T) was > 100 µM (inactive), the GI50 (SF-268) was > 100 µM (inactive) and the GI50 (CCRF-CEM) was > 100 µM (inactive). For the same compound, the GI50 (OVCAR-5) was > 100 µM (inactive), the GI50 (HT-29) was > 100 µM (inactive) and the GI50 (NCI-H23) was > 100 µM (inactive). For the same compound, the GI50 (SK-MEL-5) was > 100 µM (inactive), the GI50 (EKVX) was > 100 µM (inactive) and the GI50 (NCI-H226) was > 100 µM (inactive).

With `CN(C)S(=O)(=O)c1nc(Cl)c2nc[nH]c2n1` the GI50 (ACHN) was > 100 µM (inactive), the GI50 (SF-295) was > 100 µM (inactive) and the GI50 (SR) was > 100 µM (inactive). For the same compound, the GI50 (PC-3) was > 100 µM (inactive), the GI50 (M14) was > 100 µM (inactive) and the GI50 (HCT-15) was over 100 µM. The GI50 (SNB-19) was > 100 µM (inactive), the GI50 (UACC-62) was > 100 µM (inactive) and the GI50 (MDA-MB-435) was > 100 µM (inactive). For the same compound, the GI50 (T47D) was > 100 µM (inactive), the GI50 (A549) was > 100 µM (inactive) and the GI50 (SNB-75) was 36.9 µM (inactive). The GI50 (SK-MEL-28) was > 100 µM (inactive), the GI50 (SW-620) was > 100 µM (inactive) and the GI50 (MOLT-4) was > 100 µM (inactive). For the same compound, the GI50 (HCC 2998) was > 100 µM (inactive), the GI50 (BT-549) was > 100 µM (inactive) and the GI50 (786-0) was > 100 µM (inactive). The GI50 (U-251) was > 100 µM (inactive), the GI50 (SN12C) was > 100 µM (inactive) and the GI50 (A498) was > 100 µM (inactive). For the same compound, the GI50 (RPMI-8226) was > 100 µM (inactive), the GI50 (UO-31) was > 100 µM (inactive) and the GI50 (SK-MEL-2) was > 100 µM (inactive). For the same compound, the GI50 (MCF7) was > 100 µM (inactive), the GI50 (MDA-N) was > 100 µM (inactive) and the GI50 (TK-10) was > 100 µM (inactive). For the same compound, the GI50 (CAKI-1) was > 100 µM (inactive), the GI50 (OVCAR-4) was > 100 µM (inactive) and the GI50 (HCT-116) was > 100 µM (inactive). The GI50 (OVCAR-8) was > 100 µM (inactive), the GI50 (Malme-3M) was > 100 µM (inactive) and the GI50 (DU-145) was > 100 µM (inactive). The GI50 (OVCAR-3) was > 100 µM (inactive), the GI50 (MDA-MB-231) was > 100 µM (inactive) and the GI50 (RXF 393) was 55.7 µM (inactive). The GI50 (NCI/ADR-RES) was > 100 µM (inactive), the GI50 (NCI-H522) was > 100 µM (inactive) and the GI50 (HOP-62) was > 100 µM (inactive). For the same compound, the GI50 (IGROV-1) was > 100 µM (inactive), the GI50 (KM12) was > 100 µM (inactive) and the GI50 (SK-OV-3) was > 100 µM (inactive). The GI50 (LOX IMVI) was > 100 µM (inactive), the GI50 (COLO 205) was > 100 µM (inactive) and the GI50 (K562) was > 100 µM (inactive). For the same compound, the GI50 (UACC-257) was > 100 µM (inactive), the GI50 (Hs-578T) was > 100 µM (inactive) and the GI50 (SF-268) was > 100 µM (inactive). The GI50 (CCRF-CEM) was > 100 µM (inactive), the GI50 (OVCAR-5) was > 100 µM (inactive) and the GI50 (HT-29) was > 100 µM (inactive). For the same compound, the GI50 (HL-60) was 98.6 µM (inactive), the GI50 (NCI-H23) was > 100 µM (inactive) and the GI50 (SK-MEL-5) was > 100 µM (inactive). For the same compound, the GI50 (EKVX) was > 100 µM (inactive) and the GI50 (NCI-H226) was > 100 µM (inactive).

`O=C(O)CCC(=O)c1ccc2sc3ccccc3c2c1` was tested, and the GI50 (ACHN) was > 100 µM (inactive), the GI50 (SF-295) was > 100 µM (inactive) and the GI50 (SR) was > 100 µM (inactive). For the same compound, the GI50 (PC-3) was > 100 µM (inactive), the GI50 (M14) was > 100 µM (inactive) and the GI50 (HCT-15) was over 100 µM. For the same compound, the GI50 (SNB-19) was > 100 µM (inactive), the GI50 (UACC-62) was > 100 µM (inactive) and the GI50 (MDA-MB-435) was > 100 µM (inactive). The GI50 (T47D) was > 100 µM (inactive), the GI50 (A549) was > 100 µM (inactive) and the GI50 (SNB-75) was > 100 µM (inactive). For the same compound, the GI50 (SK-MEL-28) was > 100 µM (inactive), the GI50 (SW-620) was > 100 µM (inactive) and the GI50 (MOLT-4) was > 100 µM (inactive). The GI50 (BT-549) was > 100 µM (inactive), the GI50 (786-0) was > 100 µM (inactive) and the GI50 (U-251) was > 100 µM (inactive). For the same compound, the GI50 (SN12C) was > 100 µM (inactive), the GI50 (A498) was 27.9 µM (inactive) and the GI50 (RPMI-8226) was > 100 µM (inactive). For the same compound, the GI50 (UO-31) was > 100 µM (inactive), the GI50 (SK-MEL-2) was > 100 µM (inactive) and the GI50 (MCF7) was > 100 µM (inactive). The GI50 (MDA-N) was > 100 µM (inactive), the GI50 (TK-10) was 91.6 µM (inactive) and the GI50 (CAKI-1) was > 100 µM (inactive). The GI50 (OVCAR-4) was > 100 µM (inactive), the GI50 (HCT-116) was > 100 µM (inactive) and the GI50 (OVCAR-8) was > 100 µM (inactive). The GI50 (SF-539) was > 100 µM (inactive), the GI50 (Malme-3M) was > 100 µM (inactive) and the GI50 (DU-145) was > 100 µM (inactive). For the same compound, the GI50 (OVCAR-3) was > 100 µM (inactive), the GI50 (MDA-MB-231) was > 100 µM (inactive) and the GI50 (RXF 393) was > 100 µM (inactive). For the same compound, the GI50 (NCI/ADR-RES) was > 100 µM (inactive), the GI50 (NCI-H522) was > 100 µM (inactive) and the GI50 (HOP-62) was > 100 µM (inactive). For the same compound, the GI50 (IGROV-1) was > 100 µM (inactive), the GI50 (KM12) was > 100 µM (inactive) and the GI50 (SK-OV-3) was > 100 µM (inactive). For the same compound, the GI50 (LOX IMVI) was > 100 µM (inactive), the GI50 (COLO 205) was > 100 µM (inactive) and the GI50 (NCI-H460) was > 100 µM (inactive). The GI50 (K562) was > 100 µM (inactive), the GI50 (UACC-257) was > 100 µM (inactive) and the GI50 (Hs-578T) was > 100 µM (inactive). For the same compound, the GI50 (SF-268) was > 100 µM (inactive), the GI50 (CCRF-CEM) was 0.225 µM (active) and the GI50 (OVCAR-5) was > 100 µM (inactive). For the same compound, the GI50 (HT-29) was > 100 µM (inactive), the GI50 (HL-60) was 15.8 µM (inactive) and the GI50 (NCI-H23) was > 100 µM (inactive). For the same compound, the GI50 (SK-MEL-5) was > 100 µM (inactive), the GI50 (EKVX) was > 100 µM (inactive) and the GI50 (NCI-H226) was > 100 µM (inactive).
